Results: patent publication US7488822B2 (Wyeth, priority 1999, dated 2009)
Several values for one entry are separate records, joined by “and”; a condition that tells them apart may be missing. Equal entries are not always repeated. Each block holds one compound with its values, some of them ahead of it.

Assays:
[1] = system: rat uterine decidualization; experiment: Rat decidualization assay; assay type: in vivo; settings: for Estimated average EC50 (mg/kg, s.c.): average for dose-response curves; for Estimated EC50 (mg/kg, s.c.): uterine wet weight; for Decidualization IC50: decrease in EC50 progesterone induced decidual response
Method: The animals are treated once daily for seven days. […] Uteri are removed and trimmed of fat.
Body weight: Mean total animal body weight (default-kg)
Decidual response: [(D-C)/C]×100%

[2] = system: T47D cells; experiment: T47D cell proliferation assay (BrdU incorporation); assay type: cell-based; settings: half-maximal decrease in trimegestone induced BrdU incorporation, individual studies, read-out: Estimated IC50
Method: T47D cell proliferation assay • The objective of this assay is the determination of progestational and antiprogestational potency by using a cell proliferation assay in T47D cells. A compound's effect on DNA synthesis in T47D cells is measured. […] Growth medium: DMEM:F12 (1:1) (GIBCO, BRL) supplemented with 10% (v/v) fetal bovine serum (not heat-inactivated), 100 U/ml penicillin, […], and 2 mM GlutaMax (GIBCO, BRL). • b. Treatment medium: Minimum Essential Medium (MEM) (#51200-038GIBCO, BRL) phenol red-free supplemented with 0.5% charcoal stripped fetal bovine serum, 100 U/ml penicillin, […] streptomycin, and 2 mM GlutaMax (GIBCO, BRL). • c. Cell Culture • Stock T47 D cells are maintained in growth medium. For BrdU incorporation assay, cells are plated in 96-well plates (Falcon, Becton Dickinson Labware) at 10,000 cells/well in growth medium. […] Cell Proliferation Assay • At the end of BrdU labeling, the medium is removed and BrdU incorporation is measured using a cell proliferation ELISA kit (#RPN 250, Amersham Life Science) according to manufacturer's instructions. […] Then 25 μl of 1 M sulfuric acid is added to each well to stop color reaction and optical density is read in a plate reader at 450 nm within 5 min. • e. […] EC50 or IC50 values are calculated from the retransformed values. […]

Decidualization IC50 [1]: 3 mg/kg
Compound: CC1(C)OC(=O)Nc2ccc(-c3cccc(Br)c3)cc21 [Compound 13, 6-(3-Bromo-phenyl)-4,4-dimethyl-1,4-dihydro-benzo[d][1,3]-oxazin-2-one]

Decidualization IC50 [1]: 3 mg/kg
Compound: N#Cc1cc(F)cc(-c2ccc3c(c2)C(C2CC2)(C2CC2)OC(=O)N3)c1 [Compound 15, 3-(4,4-Dicyclopropyl-2-oxo-1,4-dihydro-2H-benzo[d][1,3]oxazin-6-yl)-5-fluoro-benzonitrile]

Decidualization IC50 [1]: 1.5 mg/kg
Compound: Cc1cc(C#N)sc1-c1ccc2c(c1)C(C)(C)OC(=O)N2 [Compound 18, 5-(4,4-Dimethyl-2-oxo-1,4-dihydro-2H-benzo[d][1,3]oxazin-6-yl)-4-methyl-thiophene-2-carbonitrile]

melting point: 272 to 275 °C
Compound: CC1(C)OC(=O)Nc2ccc(-c3ccc(C#N)c(F)c3)cc21 [Example 114, 6-(4-Cyano-3-fluoro-phenyl)-4,4-dimethyl-1,4-dihydrobenzo[d][1,3]-oxazin-2-one]

Estimated EC50 (mg/kg, s.c.) ([1]; individual studies): 0.42 mg/kg and 0.39 mg/kg (2×)
Compound: CC(=O)O[C@]1(C(C)=O)CC[C@H]2[C@@H]3C[C@H](C)C4=CC(=O)CC[C@]4(C)[C@H]3CC[C@@]21C [MPA, medroxyprogesterone acetate]

The remaining lines, values behind:

Compound: C#C[C@]1(O)CC[C@H]2[C@@H]3CCC4=CC(=O)CC[C@@H]4[C@H]3C(=C)C[C@@]21CC [3-Ketodesogestrel]
Estimated average EC50 (mg/kg, s.c.) [1]: 0.10 mg/kg
Estimated EC50 (mg/kg, s.c.) ([1]; individual studies): 0.10 mg/kg and 0.06 mg/kg and 0.11 mg/kg

Compound: CC1(C)OC(=O)Nc2ccc(-c3coc(C#N)c3)cc21 [Compound 7, 4-(4,4-Dimethyl-2-oxo-1,4-dihydro-2H-benzo[d][1,3]oxazin-6-yl)-furan-2-carbonitrile]
inhibition at 3 mg/kg ([1]; @ 3 mg/kg, read-out: Decidualization, percentage inhibition at the dose specified): 75%

Compound: Cc1cc(C#N)sc1-c1ccc2c(c1)C1(CCCCC1)OC(=O)N2 [Compound 10, 5-(1,2-Dihydro-2-oxospiro[4H-3,1-benzoxazine-4,1-cyclohexan]-6-yl)-4-methyl-2-thiophenecabonitrile]
Decidualization, percentage inhibition at the dose specified ([1]; @ 10 mg/kg): 50% @

Compound: CC1(C)OC(=O)Nc2ccc(-c3csc(C#N)c3)cc21 [Compound 17, 4-(4,4-Dimethyl-2-oxo-1,4-dihidro-2H-benzo[d][1,3]oxazin-6-yl)-thiophene-2-carbonitrile]
Decidualization IC50 [1]: 2.3 mg/kg

Compound: CC1(C)OC(=O)Nc2ccc(-c3cc(F)cc(C#N)c3)cc21 [Compound 19, 3-(4,4-Dimethyl-2-oxo-1,4-dihydro-2H-benzo[d][1,3]oxazin-6-yl)-5-fluorobenzonitrile]
Decidualization IC50 [1]: 0.35 mg/kg

Compound: CC1(C)OC(=O)Nc2ccc(-c3ccc(F)c(Cl)c3)cc21 [Compound 20, 6-(3-Chloro-4-fluoro-phenyl)-4,4-dimethyl-1,4-dihydro-benzo[d][1,3]oxazin-2-one]
Decidualization IC50 [1]: 1 mg/kg

Compound: CC1(C)OC(=O)Nc2ccc(-c3ccc(S(N)(=O)=O)s3)cc21 [Example 141, 5-(4,4Dimethyl-2-oxo-1,4-dihydro-2H-benzo[d][1,3]-oxazin-6-yl)-thiophene-2-sulfonamide]
melting point: 258 to 260 °C

Compound: C#C[C@]1(O)CC[C@H]2[C@@H]3CCC4=CC(=O)CC[C@@H]4[C@H]3CC[C@@]21CC [Levonorgestrel]
Estimated average EC50 (mg/kg, s.c.) [1]: 0.10 mg/kg
Estimated EC50 (mg/kg, s.c.) ([1]; individual studies): 0.08 mg/kg and 0.12 mg/kg and 0.09 mg/kg (2×)

Compound: CC(=O)[C@H]1CC[C@H]2[C@@H]3CCC4=CC(=O)CC[C@]4(C)[C@H]3CC[C@]12C [Progesterone]
Estimated EC50 (mg/kg, s.c.) ([1]; individual studies): 5.50 mg/kg

Compound: CC#C[C@]1(O)CC[C@H]2[C@@H]3CCC4=CC(=O)CCC4=C3[C@@H](c3ccc(N(C)C)cc3)C[C@@]21C [RU486]
IC50 [2]: 0.016 nM and 0.018 nM
Estimated IC50 (mg/kg, p.o.) ([1]; p.o., EC50 dose of progesterone, individual studies): 0.21 mg/kg and 0.14 mg/kg
